Source: ChEMBL document CHEMBL5465560, “Selectivity Literature for EUbOPEN Chemogenomic Library” (2024)
Values belong to the molecule of their own block, whether it stands above or below them.

Key:
[1] = target: Substance-K receptor (Homo sapiens) (UniProt P21452); assay: Selectivity interaction (Eurofins CEREP Diversity Profile (receptors and ion channels)) EUB0000279b TACR2; conditions: at 10 µM
[2] = target: T1, Serine/threonine-protein kinase Sgk3 (Homo sapiens) (UniProt Q96BR1); assay: Selectivity interaction (KinomeScan (DiscoverX)) EUB0000607a SGK3; conditions: at 10 µM
T1 sequence (whole entry): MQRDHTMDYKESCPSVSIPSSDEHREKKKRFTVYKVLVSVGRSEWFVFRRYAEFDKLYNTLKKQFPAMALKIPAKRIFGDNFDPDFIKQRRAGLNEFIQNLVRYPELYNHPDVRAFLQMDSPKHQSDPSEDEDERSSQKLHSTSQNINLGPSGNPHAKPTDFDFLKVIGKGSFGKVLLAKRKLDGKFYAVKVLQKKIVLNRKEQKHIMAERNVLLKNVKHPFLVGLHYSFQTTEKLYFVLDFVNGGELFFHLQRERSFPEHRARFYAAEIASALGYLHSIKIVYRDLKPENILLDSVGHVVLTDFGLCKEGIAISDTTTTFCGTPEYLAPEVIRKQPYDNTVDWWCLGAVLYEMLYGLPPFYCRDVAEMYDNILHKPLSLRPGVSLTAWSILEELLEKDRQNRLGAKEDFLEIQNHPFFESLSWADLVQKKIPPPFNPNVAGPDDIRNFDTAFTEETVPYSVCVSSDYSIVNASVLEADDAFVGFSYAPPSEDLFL

[3] = target: T2, Serine/threonine-protein kinase haspin (Homo sapiens) (UniProt Q8TF76); assay: Selectivity interaction (KinomeScan (DiscoverX)) EUB0000607a GSG2; conditions: at 10 µM
T2 sequence (whole entry): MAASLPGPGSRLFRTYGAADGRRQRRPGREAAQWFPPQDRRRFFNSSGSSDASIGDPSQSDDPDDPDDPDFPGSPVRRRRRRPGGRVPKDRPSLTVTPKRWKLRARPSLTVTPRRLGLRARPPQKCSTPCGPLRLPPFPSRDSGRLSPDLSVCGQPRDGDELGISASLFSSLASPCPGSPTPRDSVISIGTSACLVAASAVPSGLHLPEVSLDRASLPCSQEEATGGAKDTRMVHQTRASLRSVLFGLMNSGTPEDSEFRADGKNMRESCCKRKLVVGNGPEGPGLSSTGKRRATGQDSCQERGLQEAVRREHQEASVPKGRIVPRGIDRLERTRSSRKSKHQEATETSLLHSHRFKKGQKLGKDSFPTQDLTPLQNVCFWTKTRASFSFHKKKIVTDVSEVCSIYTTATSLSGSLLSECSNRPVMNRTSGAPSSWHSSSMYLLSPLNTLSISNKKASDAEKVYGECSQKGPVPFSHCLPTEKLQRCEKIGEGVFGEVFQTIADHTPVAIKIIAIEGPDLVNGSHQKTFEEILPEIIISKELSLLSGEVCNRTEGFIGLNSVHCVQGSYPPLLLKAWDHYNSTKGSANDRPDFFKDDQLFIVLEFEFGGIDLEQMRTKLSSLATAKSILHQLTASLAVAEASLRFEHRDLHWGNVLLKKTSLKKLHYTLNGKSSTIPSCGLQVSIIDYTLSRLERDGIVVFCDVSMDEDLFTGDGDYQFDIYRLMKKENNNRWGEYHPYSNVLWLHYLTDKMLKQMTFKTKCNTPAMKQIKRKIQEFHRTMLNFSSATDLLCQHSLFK

[4] = target: Casein kinase I isoform gamma-3 (Homo sapiens) (UniProt Q9Y6M4); assay: Selectivity interaction (SelectScreen profiling (Invitrogen)) EUB0000607a CSNK1G3; conditions: at 2 µM
Sequence of Casein kinase I isoform gamma-3 (Homo sapiens) (Q9Y6M4 whole entry, looked up, canonical isoform): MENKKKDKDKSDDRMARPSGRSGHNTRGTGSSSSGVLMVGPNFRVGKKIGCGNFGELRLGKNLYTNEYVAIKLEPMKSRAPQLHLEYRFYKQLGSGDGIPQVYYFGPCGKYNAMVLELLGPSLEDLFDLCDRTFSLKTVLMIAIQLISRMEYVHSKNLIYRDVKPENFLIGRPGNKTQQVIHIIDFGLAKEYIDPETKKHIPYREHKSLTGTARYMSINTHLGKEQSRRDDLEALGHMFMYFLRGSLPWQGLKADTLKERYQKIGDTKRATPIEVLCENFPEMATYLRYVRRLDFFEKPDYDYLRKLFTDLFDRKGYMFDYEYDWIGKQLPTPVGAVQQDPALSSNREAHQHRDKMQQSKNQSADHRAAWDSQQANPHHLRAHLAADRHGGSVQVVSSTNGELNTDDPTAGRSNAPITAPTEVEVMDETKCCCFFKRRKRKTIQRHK

[5] = target: aryl hydrocarbon receptor (AHR) (Homo sapiens, UniProt P35869); assay: Selectivity interaction (Panel of kinases, GPCRs, ion channels and transporters (enzymatic assay)) EUB0000266bCl AHR
Sequence of aryl hydrocarbon receptor (AHR) (P35869 whole entry): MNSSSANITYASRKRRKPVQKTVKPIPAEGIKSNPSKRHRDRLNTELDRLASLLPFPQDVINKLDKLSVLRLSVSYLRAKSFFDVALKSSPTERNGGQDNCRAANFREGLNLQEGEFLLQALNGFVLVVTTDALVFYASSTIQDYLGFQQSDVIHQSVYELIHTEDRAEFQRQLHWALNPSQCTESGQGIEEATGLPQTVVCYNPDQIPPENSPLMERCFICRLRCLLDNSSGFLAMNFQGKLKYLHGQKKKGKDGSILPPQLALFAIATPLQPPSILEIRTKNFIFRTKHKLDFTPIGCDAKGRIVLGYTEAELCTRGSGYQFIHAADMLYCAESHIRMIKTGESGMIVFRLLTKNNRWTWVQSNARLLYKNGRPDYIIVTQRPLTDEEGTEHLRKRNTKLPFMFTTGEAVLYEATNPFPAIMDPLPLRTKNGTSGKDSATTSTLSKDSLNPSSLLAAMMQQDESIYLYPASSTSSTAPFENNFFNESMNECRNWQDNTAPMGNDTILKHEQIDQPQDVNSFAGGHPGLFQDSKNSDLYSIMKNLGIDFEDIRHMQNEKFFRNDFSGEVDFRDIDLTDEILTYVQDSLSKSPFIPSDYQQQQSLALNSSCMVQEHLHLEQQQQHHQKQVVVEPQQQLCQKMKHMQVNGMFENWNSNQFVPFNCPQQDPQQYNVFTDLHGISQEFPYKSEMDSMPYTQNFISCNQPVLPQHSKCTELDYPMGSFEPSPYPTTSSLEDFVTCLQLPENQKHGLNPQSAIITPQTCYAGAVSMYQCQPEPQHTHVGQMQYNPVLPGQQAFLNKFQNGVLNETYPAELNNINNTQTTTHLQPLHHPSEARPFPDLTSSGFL

[6] = target: MAP kinase-interacting serine/threonine-protein kinase 2 (Homo sapiens, UniProt Q9HBH9); assay: Selectivity interaction (Upstate Kinase Profiler service (Millipore)) EUB0000056c MKNK2; conditions: at 1 µM
Sequence of MAP kinase-interacting serine/threonine-protein kinase 2 (Q9HBH9 whole entry, looked up): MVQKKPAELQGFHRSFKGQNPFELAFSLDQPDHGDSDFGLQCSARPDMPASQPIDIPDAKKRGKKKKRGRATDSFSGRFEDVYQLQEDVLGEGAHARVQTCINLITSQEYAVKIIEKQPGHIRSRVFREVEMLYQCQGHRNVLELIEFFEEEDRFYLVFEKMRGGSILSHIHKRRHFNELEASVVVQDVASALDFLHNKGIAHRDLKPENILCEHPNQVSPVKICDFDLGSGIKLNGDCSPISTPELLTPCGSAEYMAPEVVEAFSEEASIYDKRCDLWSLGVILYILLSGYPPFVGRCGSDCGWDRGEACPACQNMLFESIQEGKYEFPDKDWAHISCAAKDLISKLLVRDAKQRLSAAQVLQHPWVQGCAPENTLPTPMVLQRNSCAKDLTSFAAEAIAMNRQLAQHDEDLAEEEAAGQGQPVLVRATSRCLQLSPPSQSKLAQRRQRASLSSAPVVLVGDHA

[7] = target: Serine/threonine-protein kinase 25 (Homo sapiens) (UniProt O00506); assay: Selectivity interaction (KinomeScan (DiscoverX)) EUB0000699a STK25; conditions: at 10 µM
[8] = target: RAF proto-oncogene serine/threonine-protein kinase (Homo sapiens) (UniProt P04049); assay: Selectivity interaction (Kinase panel (Invitrogen)) EUB0000639a RAF1; conditions: at 200 nM
Sequence of RAF proto-oncogene serine/threonine-protein kinase (Homo sapiens) (P04049 whole entry): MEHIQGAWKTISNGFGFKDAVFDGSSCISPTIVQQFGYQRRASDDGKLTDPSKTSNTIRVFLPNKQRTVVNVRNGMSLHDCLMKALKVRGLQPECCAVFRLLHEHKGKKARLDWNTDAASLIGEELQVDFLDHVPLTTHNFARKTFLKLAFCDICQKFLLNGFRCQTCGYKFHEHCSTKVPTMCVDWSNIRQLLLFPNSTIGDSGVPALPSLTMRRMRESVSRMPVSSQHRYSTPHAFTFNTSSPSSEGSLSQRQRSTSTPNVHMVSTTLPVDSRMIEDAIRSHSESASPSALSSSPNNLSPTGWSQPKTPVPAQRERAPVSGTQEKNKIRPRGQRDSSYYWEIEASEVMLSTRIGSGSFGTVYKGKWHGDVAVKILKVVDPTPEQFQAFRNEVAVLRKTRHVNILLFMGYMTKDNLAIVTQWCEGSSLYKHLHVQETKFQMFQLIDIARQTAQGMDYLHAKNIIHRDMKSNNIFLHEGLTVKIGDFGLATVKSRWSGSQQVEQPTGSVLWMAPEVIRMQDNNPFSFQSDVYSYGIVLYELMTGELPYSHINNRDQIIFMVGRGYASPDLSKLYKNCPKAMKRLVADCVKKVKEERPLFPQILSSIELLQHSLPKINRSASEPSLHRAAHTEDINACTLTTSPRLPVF

[9] = target: T3, Serine/threonine-protein kinase TBK1 (Homo sapiens) (UniProt Q9UHD2); assay: Selectivity interaction (ProQinase) EUB0000171b TBK1
T3 sequence (whole entry): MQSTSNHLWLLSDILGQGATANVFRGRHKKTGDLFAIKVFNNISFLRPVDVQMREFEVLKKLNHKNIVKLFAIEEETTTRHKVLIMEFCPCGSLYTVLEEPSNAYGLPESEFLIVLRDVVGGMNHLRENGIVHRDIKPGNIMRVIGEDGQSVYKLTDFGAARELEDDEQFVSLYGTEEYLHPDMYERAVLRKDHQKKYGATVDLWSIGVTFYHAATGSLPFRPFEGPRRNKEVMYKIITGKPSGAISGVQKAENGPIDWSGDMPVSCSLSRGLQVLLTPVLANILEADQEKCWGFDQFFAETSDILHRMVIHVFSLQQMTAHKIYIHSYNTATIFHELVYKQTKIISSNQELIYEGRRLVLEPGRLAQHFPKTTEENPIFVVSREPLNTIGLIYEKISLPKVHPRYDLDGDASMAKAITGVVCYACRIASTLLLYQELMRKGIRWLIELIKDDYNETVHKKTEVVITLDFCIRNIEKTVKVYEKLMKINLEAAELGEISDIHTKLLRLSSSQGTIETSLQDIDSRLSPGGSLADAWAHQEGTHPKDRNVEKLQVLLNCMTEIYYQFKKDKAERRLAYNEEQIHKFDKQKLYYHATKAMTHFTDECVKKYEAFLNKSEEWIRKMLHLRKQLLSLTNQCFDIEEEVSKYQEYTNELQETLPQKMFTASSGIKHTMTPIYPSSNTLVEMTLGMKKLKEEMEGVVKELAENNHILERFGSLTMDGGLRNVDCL

[10] = target: Cyclin-dependent kinase 4/cyclin D1 (Homo sapiens) (UniProt P11802+P24385); assay: (§1) Selectivity interaction (Ambit KINOMEscan and KiNATiv profiling in Jurkat cells) EUB0000090b CDK4; format: cell-based; conditions: at 1 µM
[11] = target: CDK4/Cyclin D3 (Homo sapiens) (UniProt P11802+P30281); assay: as §1; format: cell-based; conditions: at 1 µM
[12] = target: Acetylcholine receptor subunit alpha (Homo sapiens, UniProt P02708); assay: Selectivity interaction (Panel of kinases, GPCRs, ion channels and transporters (enzymatic assay)) EUB0000223bCl CHRNA1
Sequence of Acetylcholine receptor subunit alpha (P02708 whole entry): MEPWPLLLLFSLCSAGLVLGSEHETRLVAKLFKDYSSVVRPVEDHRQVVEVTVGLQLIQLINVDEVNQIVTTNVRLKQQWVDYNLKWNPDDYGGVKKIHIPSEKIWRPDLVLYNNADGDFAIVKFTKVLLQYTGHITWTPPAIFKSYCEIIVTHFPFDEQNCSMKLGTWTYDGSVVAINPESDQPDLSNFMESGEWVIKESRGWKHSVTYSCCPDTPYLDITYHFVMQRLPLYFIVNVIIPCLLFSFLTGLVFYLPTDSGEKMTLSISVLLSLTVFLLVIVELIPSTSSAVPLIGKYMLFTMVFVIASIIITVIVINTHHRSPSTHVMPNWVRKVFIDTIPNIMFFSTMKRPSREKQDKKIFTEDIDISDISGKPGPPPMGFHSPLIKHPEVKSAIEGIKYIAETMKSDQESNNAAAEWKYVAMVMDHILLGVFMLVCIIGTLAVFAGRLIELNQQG

[13] = target: Histone-lysine N-methyltransferase NSD3 (Homo sapiens, UniProt Q9BZ95); assay: Selectivity interaction (Binding affinity assay (SPR measurement)) EUB0000270b NSD3
Sequence of Histone-lysine N-methyltransferase NSD3 (Q9BZ95 whole entry): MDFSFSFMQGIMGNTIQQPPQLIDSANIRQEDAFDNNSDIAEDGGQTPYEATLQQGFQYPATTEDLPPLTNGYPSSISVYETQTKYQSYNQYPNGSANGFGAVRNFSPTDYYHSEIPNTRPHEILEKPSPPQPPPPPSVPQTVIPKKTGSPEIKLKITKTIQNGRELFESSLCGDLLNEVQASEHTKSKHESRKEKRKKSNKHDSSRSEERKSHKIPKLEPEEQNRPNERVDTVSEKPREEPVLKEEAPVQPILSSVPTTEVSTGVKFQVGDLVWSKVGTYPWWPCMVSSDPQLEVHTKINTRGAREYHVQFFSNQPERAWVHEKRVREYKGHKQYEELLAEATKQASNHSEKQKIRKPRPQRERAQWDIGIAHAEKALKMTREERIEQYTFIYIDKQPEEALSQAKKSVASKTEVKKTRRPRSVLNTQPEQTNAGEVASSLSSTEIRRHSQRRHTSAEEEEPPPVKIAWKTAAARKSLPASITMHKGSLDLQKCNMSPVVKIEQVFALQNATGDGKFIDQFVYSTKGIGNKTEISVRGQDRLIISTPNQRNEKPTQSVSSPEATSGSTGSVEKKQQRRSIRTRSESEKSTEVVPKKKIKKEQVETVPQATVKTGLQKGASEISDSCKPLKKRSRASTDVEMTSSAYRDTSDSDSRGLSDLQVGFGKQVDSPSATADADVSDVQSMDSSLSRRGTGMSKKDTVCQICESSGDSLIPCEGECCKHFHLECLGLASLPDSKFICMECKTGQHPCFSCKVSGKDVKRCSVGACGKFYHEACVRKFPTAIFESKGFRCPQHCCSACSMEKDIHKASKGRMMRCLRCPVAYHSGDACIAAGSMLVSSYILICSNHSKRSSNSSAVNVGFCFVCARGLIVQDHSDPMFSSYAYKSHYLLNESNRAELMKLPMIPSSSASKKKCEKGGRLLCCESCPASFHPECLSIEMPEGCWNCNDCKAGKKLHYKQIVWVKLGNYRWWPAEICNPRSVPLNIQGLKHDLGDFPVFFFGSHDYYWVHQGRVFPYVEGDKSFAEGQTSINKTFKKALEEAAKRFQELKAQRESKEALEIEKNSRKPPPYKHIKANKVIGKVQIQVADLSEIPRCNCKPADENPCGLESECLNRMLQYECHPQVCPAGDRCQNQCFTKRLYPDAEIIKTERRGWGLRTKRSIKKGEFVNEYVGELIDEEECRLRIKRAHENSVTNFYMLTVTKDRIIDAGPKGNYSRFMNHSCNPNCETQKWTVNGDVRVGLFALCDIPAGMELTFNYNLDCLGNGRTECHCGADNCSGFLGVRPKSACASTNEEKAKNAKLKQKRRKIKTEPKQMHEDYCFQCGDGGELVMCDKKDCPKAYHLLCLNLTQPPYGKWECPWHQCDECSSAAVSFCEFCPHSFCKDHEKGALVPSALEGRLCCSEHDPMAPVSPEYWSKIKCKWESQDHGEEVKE

[14] = target: cAMP-dependent protein kinase catalytic subunit beta (Homo sapiens) (UniProt P22694); assay: Selectivity interaction (KinomeScan (DiscoverX)) EUB0000092b PRKACB; conditions: at 10 µM

Sequence of Substance-K receptor (Homo sapiens) (P21452 whole entry): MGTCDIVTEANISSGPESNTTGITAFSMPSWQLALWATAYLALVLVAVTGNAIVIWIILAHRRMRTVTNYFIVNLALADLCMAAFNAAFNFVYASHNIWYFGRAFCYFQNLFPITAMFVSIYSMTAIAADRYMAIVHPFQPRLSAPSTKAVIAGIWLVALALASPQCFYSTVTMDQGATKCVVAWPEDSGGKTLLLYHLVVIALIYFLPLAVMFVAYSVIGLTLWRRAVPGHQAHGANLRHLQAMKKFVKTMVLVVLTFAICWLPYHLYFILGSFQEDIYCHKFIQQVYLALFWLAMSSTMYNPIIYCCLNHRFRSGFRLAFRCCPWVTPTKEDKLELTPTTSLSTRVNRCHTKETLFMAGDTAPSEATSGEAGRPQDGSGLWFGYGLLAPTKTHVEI

Compound: CNC(=O)Nc1ccc(-c2nc(N3CC4CCC(C3)O4)c3cnn(C4CCC5(CC4)OCCO5)c3n2)cc1
% of control [2]: 100%
% of control [3]: 100%
% of inhibition [4]: -1%

Compound: CCn1c(-c2nc3cc(C(=O)N4CCCC(N)C4)ccc3n2C)cc2ccccc21 (stereo not given)
XC50 [5]: > 100 µM

Compound: CN(C)C/C=C/C(=O)Nc1ccc(C(=O)N2CCCC(Nc3ncc(Cl)c(-c4c[nH]c5ccccc45)n3)C2)cc1 (stereo not given)
% of control [10]: 59%
% of control [11]: 94%

Compound: COc1cc(C(=O)N2CC[C@@H](O)[C@@H](N)C2)cc2nc(-c3cc4ccccc4n3CC3CC3)n(C)c12
pXC50 [12]: 5.8 M

Compound: CCC(=O)N1CCN(c2ccc(-n3c(=O)ccc4cnc5ccc(-c6cnc7ccccc7c6)cc5c43)cc2C(F)(F)F)CC1
% of control [14]: 100%

More lines, now with the values ahead:

% of control [1]: 92%
Compound: CC(=O)c1cc(-c2ccccc2OCC2CC2)c2ncccn12

% of inhibition [6]: 85%
Compound: Cc1ccc(-c2ccc3c(ccc4sc5c(c43)NC[C@@H](C)NC5=O)n2)cn1

% of control [7]: 9.4%
Compound: CCN(CC)CCCCNc1ncc2cc(-c3cc(OC)cc(OC)c3)c(NC(=O)NC(C)(C)C)nc2n1

% of inhibition [8]: 10.1%
Compound: CC[C@@H]1[C@H](F)C(=O)N[C@@H]1COc1nccc2cc(C(N)=O)c(OC)cc12 [ZIMLOVISERTIB]

% of control ([9]; at 1 µM): 84%
% of control ([9]; at 5 µM): 69%
Compound: C=CC(=O)Nc1cccc(C(=O)Nc2ccc(Nc3cc(-c4[nH]c(SC)nc4C)ccn3)cc2)c1

Kd [13]: 144 µM
Compound: Cc1cc(CN)cc(C)c1-c1ncn(C)c1-c1cncn1C
